Measurements taken from article PMC5371667, “Targeting Bile Acid Receptors: Discovery of a Potent and Selective Farnesoid X Receptor Agonist as a New Lead in the Pharmacological Approach to Liver Diseases” (Frontiers in Pharmacology, 2017).
Where two headings read alike, the source gives them in different places.

Columns and labels:
human GPBAR1 = molecular target: T1, human GPBAR1 (Homo sapiens, UniProt Q8TDU6); experiment: GPBAR1 transactivation on HepG2 cells (CRE luciferase reporter); format: cell-based; settings: compounds at 1 and 10 μM, TLCA 10 μM positive control
T1 construct: expressed in transfected cells; host or cells: HepG2
T1 sequence (Q8TDU6 1-330): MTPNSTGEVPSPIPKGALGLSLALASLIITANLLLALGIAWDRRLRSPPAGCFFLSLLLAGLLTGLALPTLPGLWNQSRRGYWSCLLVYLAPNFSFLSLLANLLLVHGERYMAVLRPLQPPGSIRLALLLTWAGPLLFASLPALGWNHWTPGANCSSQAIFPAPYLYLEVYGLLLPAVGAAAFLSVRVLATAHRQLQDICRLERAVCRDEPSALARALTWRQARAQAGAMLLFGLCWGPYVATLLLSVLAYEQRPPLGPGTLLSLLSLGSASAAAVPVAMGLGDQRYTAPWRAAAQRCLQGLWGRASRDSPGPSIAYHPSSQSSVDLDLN
Method: For FXR mediated transactivation, HepG2 cells were plated at 5 × 10^4 cells/well in a 24 well plate. Cells were transfected with 200 ng of the reporter vector p(hsp27)-TK-LUC containing a FXR response element (IR1) cloned from the promoter of heat shock protein 27 (hsp27), 100 ng of pSG5-FXR, 100 ng of pSG5-RXR, and 100 ng of pGL4.70 (Promega), a vector encoding the human Renilla gene. For GPBAR1 mediated transactivation, HepG2 cells were plated at 5 × 10^4 cells/well in a 24 well-plate and transfected with 200 ng of pGL4.29 (Promega), a reporter vector containing a cAMP response element (CRE) that drives the transcription of the luciferase reporter gene luc2P, with 100 ng of pCMVSPORT6-human GPBAR1, and with 100 ng of pGL4.70 Renilla. […] TLCA (10 μM) was used as a positive control for GPBAR1 activity.

GST-fusion FXR-LBD = molecular target: T2, GST-fusion FXR-LBD (Homo sapiens, UniProt Q96RI1); experiment: Alpha Screen coactivator (SRC-1 peptide) recruitment assay; format: biochemical; settings: recruitment of SRC-1 co-activator peptide, Alfa Screen, Table 1; for Efficacy: 6-ECDCA = 100
T2 construct: 10 nM of purified GST-tagged FXR-LBD protein
T2 sequence (Q96RI1 262-486 limits assumed): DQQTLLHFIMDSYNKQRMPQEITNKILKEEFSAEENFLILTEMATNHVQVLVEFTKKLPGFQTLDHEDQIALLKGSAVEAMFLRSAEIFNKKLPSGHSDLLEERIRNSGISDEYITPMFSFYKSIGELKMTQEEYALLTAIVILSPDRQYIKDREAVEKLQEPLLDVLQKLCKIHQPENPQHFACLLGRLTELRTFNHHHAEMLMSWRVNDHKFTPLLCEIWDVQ
Method: Activation of FXR was determined by Alpha Screen Technology in a Coactivator Recruitment Assay. Anti-GST-coated acceptor beads were used to capture the GST-fusion FXR-LBD, whereas the biotinylated-SRC-1 peptide was captured by the streptavidin donor beads. Upon illumination at 680 nm, chemical energy is transferred from donor to acceptor beads across the complex streptavidin-donor/[…]-LBD/anti-GST-acceptor and a signal is produced. The assay was performed in white, low-volume, 384-well Optiplates (PerkinElmer) using a final volume of 25 μL containing final concentrations of 10 nM of purified GST-tagged FXR-LBD protein, 30 nM biotinylated SRC-1 peptide, 20 μg/mL anti-GST acceptor beads, and 10 μg/mL of streptavidin donor bead (PerkinElmer). The assay buffer contained 50 mM Tris (pH 7.4), 50 mM KCl and 1 mM DTT. The stimulation times with 1 μL of tested compound (dissolved in 50% DMSO/H2O) were fixed to 30 min at room temperature. The concentration of DMSO in each well was maintained at a final concentration of 2%. After the addition of the detection mix (acceptor and donor beads), the plates were incubated in the dark for 3 h at room temperature and then were read in an Envision microplate analyzer (PerkinElmer).

hFXR = molecular target: T3, hFXR (Homo sapiens, UniProt Q96RI1); experiment: FXR transactivation on HepG2 cells (luciferase reporter); format: cell-based
T3 construct: expressed in transfected cells; host or cells: HepG2
T3 sequence (Q96RI1 1-486): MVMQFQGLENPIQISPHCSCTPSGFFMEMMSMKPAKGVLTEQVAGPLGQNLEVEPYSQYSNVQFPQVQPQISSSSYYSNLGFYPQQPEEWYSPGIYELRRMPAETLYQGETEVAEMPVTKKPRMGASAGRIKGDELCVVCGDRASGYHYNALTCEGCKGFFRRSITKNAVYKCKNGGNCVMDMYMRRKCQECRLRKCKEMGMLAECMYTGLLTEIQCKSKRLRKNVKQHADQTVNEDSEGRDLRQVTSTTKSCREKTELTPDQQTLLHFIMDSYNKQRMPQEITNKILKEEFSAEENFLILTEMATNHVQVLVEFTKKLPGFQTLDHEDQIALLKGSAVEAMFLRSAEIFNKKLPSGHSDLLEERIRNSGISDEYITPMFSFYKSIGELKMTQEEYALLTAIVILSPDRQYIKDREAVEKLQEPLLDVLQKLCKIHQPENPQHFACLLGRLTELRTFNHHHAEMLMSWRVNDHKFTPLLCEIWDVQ
T3 sequence (P19793 1-462 partner): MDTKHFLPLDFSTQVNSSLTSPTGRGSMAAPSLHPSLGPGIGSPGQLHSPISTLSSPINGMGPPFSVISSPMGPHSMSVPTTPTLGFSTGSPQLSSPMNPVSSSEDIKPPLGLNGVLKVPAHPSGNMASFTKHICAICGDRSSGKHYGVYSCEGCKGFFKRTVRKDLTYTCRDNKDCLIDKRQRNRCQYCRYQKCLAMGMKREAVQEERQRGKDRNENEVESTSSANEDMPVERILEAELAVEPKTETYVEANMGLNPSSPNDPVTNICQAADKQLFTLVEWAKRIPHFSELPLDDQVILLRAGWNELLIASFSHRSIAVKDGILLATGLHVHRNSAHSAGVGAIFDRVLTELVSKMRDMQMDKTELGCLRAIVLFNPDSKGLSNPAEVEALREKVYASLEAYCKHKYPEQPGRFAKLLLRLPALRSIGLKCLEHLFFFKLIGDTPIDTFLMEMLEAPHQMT
Method: HepG2 (HB, 8065 from ATCC), an immortalized human epatocarcinoma cell line, was cultured and maintained at 37°C and 5% CO2 in E-MEM additioned with 10% FBS, 1% glutamine, and 1% penicillin/streptomycin. For FXR mediated transactivation, HepG2 cells were plated at 5 × 10^4 cells/well in a 24 well plate. Cells were transfected with 200 ng of the reporter vector p(hsp27)-TK-LUC containing a FXR response element (IR1) cloned from the promoter of heat shock protein 27 (hsp27), 100 ng of pSG5-FXR, 100 ng of pSG5-RXR, and 100 ng of pGL4.70 (Promega), a vector encoding the human Renilla gene. For GPBAR1 mediated transactivation, HepG2 cells were plated at 5 × 10^4 cells/well in a 24 well-plate and transfected with 200 ng of pGL4.29 (Promega), a reporter vector containing a cAMP response element (CRE) that drives the transcription of the luciferase reporter gene luc2P, with 100 ng of pCMVSPORT6-human GPBAR1, and with 100 ng of pGL4.70 Renilla. […]. TLCA (10 μM) was used as a positive control for GPBAR1 activity.
HepG2 cells were transfected as described above and then treated with increasing concentrations of compounds. At 18 h post stimulations, cellular lysates were assayed for luciferase and Renilla activities using the Dual-Luciferase Reporter assay system (E1980, Promega). Luminescence was measured using Glomax 20/20 luminometer (Promega). Luciferase activities were normalized with Renilla activities.

[1] = In vivo metabolic profile of compound 2 in mice (LC-MS); settings: 50 mg/kg oral of compound 2, LC-MS
[2] = cited from earlier work
[3] = PBC patients, ref Mason et al., 2010

CCC1C(O)C2C3CCC(C(C)CCC(=O)O)C3(C)CCC2C2(C)CCC(N)CC12 (stereo not shown) [compound 14]
GPBAR1 transactivation (human GPBAR1): residual activity

CCC1C(O)C2C3CCC(C(C)CCCO)C3(C)CCC2C2(C)CCC(N=[N+]=[N-])CC12 (stereo not shown) [compound 7]
EC50 (GST-fusion FXR-LBD): 1800 ± 210 nM | Efficacy (GST-fusion FXR-LBD): 57

CCC1C(O)C2C3CCC(C(C)CCCO)C3(C)CCC2C2(C)CCC(N=[N+]=[N-])CC12 (stereo not shown) [compound 8]
Efficacy (GST-fusion FXR-LBD): 49

CCC1C(=O)C2C3CCC(C(C)CCC(=O)O)C3(C)CCC2C2(C)CCC(N=[N+]=[N-])CC12 (stereo not shown) [compound 5]
Efficacy (GST-fusion FXR-LBD): 24

CCC1C(=O)C2C3CCC(C(C)CCC(=O)O)C3(C)CCC2C2(C)CCC(N)CC12 (stereo not shown) [compound 13]
GPBAR1 transactivation (human GPBAR1): residual activity

CC[C@H]1[C@@H](O)C2C3CC[C@H]([C@H](C)CCC(=O)NCCS(=O)(=O)O)[C@@]3(C)CCC2[C@@]2(C)CC[C@H](N=[N+]=[N-])C[C@@H]12 (stereo partly shown) [compound 2a]
EC50 (hFXR; 10 nM to 25 μM, 18 h): 3950 nM | agonist activity toward FXR (hFXR; dose-response): full agonist activity | recovery in bile and plasma after administration of compound 2 [1]: efficiently recovered in bile and in plasma

CC[C@H]1[C@@H](O)[C@@H]2[C@H](CC[C@]3(C)[C@@H]([C@H](C)CCC(=O)O)CC[C@@H]23)[C@@]2(C)CC[C@@H](O)C[C@@H]12 [6-ECDCA]
patients with drug discontinuation caused by pruritus [2, 3]: 40% | patients with pruritus (itching) [2, 3]: 50–60% | patients with pruritus (itching) ([2]; patients with NASH, ref Neuschwander-Tetri et al., 2015): 23%

CCC1C(=O)C2C3CCC(C(C)CCC(=O)O)C3(C)CCC2C2(C)CCC(N=[N+]=[N-])CC12 (stereo not shown) [compound 1]
Efficacy (GST-fusion FXR-LBD): 32

CCC1C(O)C2C3CCC(C(C)CCCO)C3(C)CCC2C2(C)CCC(N)CC12 (stereo not shown) [compound 11]
GPBAR1 transactivation (human GPBAR1): residual activity

CCC1C(O)C2C3CCC(C(C)CCCO)C3(C)CCC2C2(C)CCC(N=[N+]=[N-])CC12 (stereo not shown) [compound 4]
Efficacy (GST-fusion FXR-LBD): 39

CCC1C(O)C2C3CCC(C(C)CCC(=O)O)C3(C)CCC2C2(C)CCC(N=[N+]=[N-])CC12 (stereo not shown) [compound 6]
EC50 (GST-fusion FXR-LBD): 1380 ± 350 nM | Efficacy (GST-fusion FXR-LBD): 61

CCC1C(O)C2C3CCC(C(C)CCCO)C3(C)CCC2C2(C)CCC(N=[N+]=[N-])CC12 (stereo not shown) [compound 3]
EC50 (GST-fusion FXR-LBD): 550 ± 80 nM | Efficacy (GST-fusion FXR-LBD): 55
